Measured values taken from US11168094B2, “Quinolinone derivative and pharmaceutical composition for preventing or treating allergic diseases such as asthma or atopic dermatitis including the quinolinone derivative as active ingredient” (Azcuris Co., Ltd., priority 2017, dated 2021).

Assays:
TSLP-TSLPR interaction = biological target: T1, TSLP-TSLPR interaction (Homo sapiens, UniProt Q969D9); experiment: ELISA-based TSLP-TSLPR interaction assay; type: binding; settings: for inhibition at 100 µM: compound 0.1 mM; for inhibition at 100 µM / inhibition at 300 µM / inhibition at 1000 µM: FLAG-TSLP / TSLPR-His ELISA, OD 450 nm; for inhibition at 300 µM: compound 0.3 mM; for inhibition at 1000 µM: compound 1 mM
T1 construct: made in house
Description: To this end, home-made FLAG-TSLP protein and TSLPR-His protein were used to establish an ELISA-based TSLP-TSLPR interaction assay for measuring reactions with HRP. The inhibitory activities of the inventive compounds were evaluated by the interaction assay.
ELISA assay was conducted using an Ni-NTA HisSorb plate (Qiagen, Germany). 100 μL of a solution of TSLPR C-terminally tagged with hexahistidine (His) was dispensed into each well of the plate and incubated at room temperature for 2 h. After each well was washed twice with 200 μL of PBS and 0.05% Tween-20, 100 μL of a solution of each of the inventive compounds as a sample and 100 μL of TSLP N-terminally tagged with FLAG was dispensed into the well. After incubation at 4° C. overnight, each well was washed twice and treated with 100 μL of a blocking buffer (PBS-0.05% Tween 20 and 1% nonfat dry milk). The plate was washed twice, coated with 100 μL of a monoclonal anti-FLAG horseradish peroxidase antibody (Sigma-Aldrich Co., USA) for 2 h, and incubated at room temperature. Then, each well was washed 5 times, treated with 200 μL of a solution of o-phenylenediaminedihydrochloride (Sigma-Aldrich Co., USA), incubated for 30 min, and added with 1 N HCl.
Optical densities (ODs) were measured at 450 nm using a microplate spectrophotometer. The inhibitory effect of the compound on TSLP-TSLPR interaction was calculated using the following equation: Inhibition (inhibitory effect) (%)=(1−ODsample/ODcontrol)×100

IL-33 [1] = biological target: T2, IL-33 (Homo sapiens, UniProt O95760); experiment: Inhibition of IL-6 secretion by IL-33 inhibition in HMC-1 cells (IL-6 ELISA); type: cell-based; settings: HMC1, HMC-1 cells with IL-33, 24 h, negative values indicate increased IL-6 secretion
T2 sequence (O95760 95-270): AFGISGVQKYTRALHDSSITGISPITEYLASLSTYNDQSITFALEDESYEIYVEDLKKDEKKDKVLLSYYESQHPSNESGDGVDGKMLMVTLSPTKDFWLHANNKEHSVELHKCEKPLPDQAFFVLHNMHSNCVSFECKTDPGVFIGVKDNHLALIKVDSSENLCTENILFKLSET
Description: First, HMC-1, a human mast cell line, was cultured until an appropriate number of cells was maintained in a 96-well plate. Mixtures of IL-33 and different concentrations (0.3, 3, and 30 μM) of each of the inventive compounds were treated on cells, incubated at 37° C. for 24 h, and centrifuged. The supernatants were analyzed for IL-6 secretion using an IL-6 ELISA kit (Biolegend, USA).

[2] = tested on: HDM-induced allergic airway inflammation; experiment: House dust mite (HDM)-induced allergic airway inflammation mouse models; type: in vivo; settings: 200 μg intraperitoneal, BALB/c mice, day 11, vs untreated controls (FIG. 4 and 5)
Description: Splenocytes were isolated from DO11.10 mice and ˜1×10^6CD4T cells were transferred to pure BALB/c mice by intravenous injection. For 3 days from the next day, 100 μg of a mixture of HDM (Dermatophagoidesfarinae 50 μg, Dermatophagoidespteronyssinus 50 μg, Greer Laboratories, Inc., USA) and OVA (Sigma-Aldrich Co., USA) was administered intranasally to the mice. From day 2 after administration, the mice were treated with 200 μg of each of the inventive compounds or PBS (for control mice) three times daily through the intraperitoneal route. After the mice were euthanized on day 11, the numbers of total cells and eosinophils in the airways were checked. The treatment schedule with the Formula 5 (KB 1517) and Formula 10 (KB 1518) (200 μg each) in house dust mite (HDM)-induced allergic airway inflammation mouse models is shown in FIG. 8.

IL-33 [3] = biological target: T2, IL-33; experiment: Inhibition of IL-6 secretion by IL-33 inhibition in HMC-1 cells (IL-6 ELISA); type: cell-based; settings: HMC1, HMC-1 cells with IL-33, 24 h, negative values indicate increased IL-6 secretion; remark: listed apart in the source

## CN(C)CCn1c(=O)c2nc(-c3ccc(F)cc3)oc2c2ccccc21 [Compound 3, 5-(2-(dimethylamino)ethyl)-2-(4-fluorophenyl)oxazolo[4,5-c]quinolin-4(5H)-one]
TSLP-TSLPR interaction
  inhibition at 100 µM: 17.7%
  inhibition at 300 µM: 27.5%
IL-33 [1]
  inhibition at 3 µM: 29.8%

## CN(C)CCn1c(=O)c2nc(-c3ccc(C(F)(F)F)cc3)oc2c2ccccc21 [Compound 5, 5-(2-(dimethylamino)ethyl)-2-(4-(trifluoromethyl)phenyl)oxazolo[4,5-c]quinolin-4(5H)-one]
[2]
  number of eosinophils in the airways: significantly reduced
  number of total cells in the airways: significantly reduced
TSLP-TSLPR interaction
  inhibition at 100 µM: 23.2%
  inhibition at 300 µM: 29.6%
IL-33 [1]
  inhibition at 0.3 µM: 30.4%
  inhibition at 3 µM: 28.2%

## CN(C)CCn1c(=O)c2nc(-c3ccc(Cl)cc3)oc2c2ccccc21 [Compound 4, 2-(4-chlorophenyl)-5-(2-(dimethylamino)ethyl)oxazolo[4,5-c]quinolin-4(5H)-one]
TSLP-TSLPR interaction
  inhibition at 100 µM: 28.8%
  inhibition at 300 µM: 46.6%
IL-33 [1]
  inhibition at 0.3 µM: 22.5%
  inhibition at 3 µM: 29.7%

## CN(C)CCOc1nc2ccccc2c2oc(-c3ccc(C(F)(F)F)cc3)nc12 [Compound 10, N,N-dimethyl-2-((2-(4-(trifluoromethyl)phenyl)oxazolo[4,5-c]quinolin-4-yl)oxy)ethanamine]
[2]
  number of eosinophils in the airways: significantly reduced
  number of total cells in the airways: significantly reduced
IL-33 [3]
  inhibition at 0.03 µM: 32.7%
IL-33 [1]
  inhibition at 0.3 µM: 49.3%
  inhibition at 3 µM: 51.3%

## COc1ccc(-c2nc3c(=O)n(CCN(C)C)c4ccccc4c3o2)cc1 [Compound 6, 5-(2-(dimethylamino)ethyl)-2-(4-methoxyphenyl)oxazolo[4,5-c]quinolin-4(5H)-one]
TSLP-TSLPR interaction
  inhibition at 100 µM: 25.8%
  inhibition at 300 µM: 54.7%
IL-33 [1]
  inhibition at 3 µM: -57.8%

## FLAG tag-free TSLP: TSLP protein without FLAG tag, 1 mg/mL, competitor control in the TSLP-TSLPR ELISA [reference compound]
TSLP-TSLPR interaction; 1 mg/mL FLAG tag-free TSLP as competitor
  Inhibition (%): 40.7%

## CN(C)CCn1c(=O)c2nc(-c3ccccc3)oc2c2ccccc21 [Compound 2, 5-(2-(dimethylamino)ethyl)-2-phenyloxazolo[4,5-c]quinolin-4(5H)-one]
TSLP-TSLPR interaction
  inhibition at 100 µM: 26.7%
  inhibition at 300 µM: 49%
  inhibition at 1000 µM: 66.9%
IL-33 [1]
  inhibition at 3 µM: -11.8%

## CN(C)CCOc1nc2ccccc2c2oc(-c3ccccc3)nc12 [Compound 7, N,N-dimethyl-2-((2-phenyloxazolo[4,5-c]quinolin-4-yl)oxy)ethanamine]
TSLP-TSLPR interaction
  inhibition at 100 µM: 27.8%
  inhibition at 300 µM: 54.6%
  inhibition at 1000 µM: 57.2%
IL-33 [1]
  inhibition at 3 µM: 35.6%
